According to patent publication US20080194493A1, “Compositions Containing D-Carnosine” (priority 2004, published 2008):
Read-outs that look alike come from different tables or passages of the source.

What was measured:
carnosinases = target: T1, carnosinases (Homo sapiens, UniProt Q96KN2); details: cited from earlier work
T1 construct: host or cells: human serum
T1 sequence (Q96KN2 27-507 limits assumed): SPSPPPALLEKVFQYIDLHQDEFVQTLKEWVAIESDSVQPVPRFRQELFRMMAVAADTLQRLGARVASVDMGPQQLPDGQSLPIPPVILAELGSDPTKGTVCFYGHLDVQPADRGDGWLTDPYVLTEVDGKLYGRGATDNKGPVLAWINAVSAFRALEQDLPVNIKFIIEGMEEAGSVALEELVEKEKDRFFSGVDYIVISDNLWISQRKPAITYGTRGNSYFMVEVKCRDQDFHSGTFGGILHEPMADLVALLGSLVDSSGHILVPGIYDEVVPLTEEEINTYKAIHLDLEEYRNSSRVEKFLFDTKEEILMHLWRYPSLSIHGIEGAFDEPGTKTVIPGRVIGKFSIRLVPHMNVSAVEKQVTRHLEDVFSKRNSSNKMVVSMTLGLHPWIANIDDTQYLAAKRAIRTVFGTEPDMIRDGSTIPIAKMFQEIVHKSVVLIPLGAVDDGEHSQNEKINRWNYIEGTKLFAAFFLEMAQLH

[1] = Reactivity towards HNE in homogeneous solution (aldehyde consumption by liquid chromatography); type: biochemical; details: for inhibited HNE: HNE 10 μm in 10 mM phosphate buffer, molar ratios 1:10 and 1:20
Procedure: The almost identical reactivity compared with the L-form towards cytotoxic aldehydes, especially HNE and acrolein, was confirmed in a homogenous solution of HNE (10 μm) and acrolein (200 μm) in 10 mM phosphate buffer in molar ratios of the dipeptides amounting to 1:10 and 1:20. […]

[2] = rat, in vivo, po, 570 mg/kg
Procedure: (§1) An LC-MS/MS technique, validated in the 5-250 μM range, with detection limits of 50-20 picomoles, was set-up for this purpose.
(§2) In the in vivo acute studies, D- and L-carnosine were administered orally to Wistar rats (320 g±25 g) in the form of an aqueous solution at pH 7.4 (HCl) at the dose of 570 mg/kg.

[3] = Crossing of the blood-brain barrier (stated, no method)
[4] = Chronic treatment with the diet water in obese-Zucker rats: levels in plasma, urine and kidney
Procedure: The stability of L- and D-carnosine was compared in human plasma and serum in vitro, and in vivo in the rat (acute and chronic treatment). An LC-MS/MS technique, validated in the 5-250 μM range, with detection limits of 50-20 picomoles, was set-up for this purpose.
In chronic treatment, D- and L-camosine were administered with the diet water for 12 weeks at a dose of 30 mg/Kg. The experiment was carried out by using obese-Zucker rats (Charles River), an animal model of metabolic disorders, characterized by hyperinsulinemia, insulin resistance, obesity, hypertriglyceridemia, hypercholesterolemia, and by an increased formation of lipid derived carbonyls, protein carbonylation and appearance of carbonyl-dependent degenerative process such as nephropathy and vascular dysfunction, (Metz T O, Alderson N L, Chachich M E, Thorpe S R, Baynes J W, Pyridoxamine traps intermediates in lipid peroxidation reactions in vivo: evidence on the role of lipids in chemical modification of protein and development of diabetic complications, J Biol Chem. 2003 October 24;278(43):42012-9.

[5] = In vivo acute study, oral administration to Wistar rats; details: 570 mg/kg
Procedure: as §1, §2

Zucker rats = experiment: Pharmacological effects of chronic treatment in Zucker rats; type: in vivo
Text: In particular, D-carnosine is effective for the treatment or prevention of disorders involving highly reactive and cytotoxic carbonyl derivatives (HNE, acrolein, malonyldialdehyde, glyoxal and dimethylglyoxal), especially Alzheimer's disease, atherosclerosis, disorders secondary to diabetes, age-associated tissue degeneration such as sarcopenia, and correlated disorders. Forms designed for topical administration are particularly indicated for the latter.

[6] = In vitro stability in human plasma (LC-MS/MS); details: after 6 hours incubation at 37° C., in the presence and absence of cadmium chloride
[7] = 30 mg/Kg with the diet water for 12 weeks

Row | SMILES | hydrolysis in human serum (carnosinases) | inhibited HNE ([1]; after 24 hours) [%] | inhibited HNE ([1]; after one hour's incubation) [%] | stability in human plasma | time to disappear from the administration ([2]; Wistar) [h] | Cmax (time at which reached) [2] [min] | blood-brain barrier crossing [3] | activity towards HNE compared with aminoguanidine and methoxyamine [1] | reaction kinetics with HNE [1] | level in plasma [4, 7] [nM] | level in the kidney [4, 7] [nmoles/gr wt tissue] | level in urine [4, 7] [nmoles over 24 hrs] | increase of D-carnosine in respect to L-carnosine in plasma ([4]; 30 mg/Kg, 12 weeks) [fold] | increase of D-carnosine in respect to L-carnosine in urine as well as in the kidney ([4]; 30 mg/Kg, 12 weeks) | Cmax reached at (time) [5] [h] | pharmacological levels maintained up to [5] | time to disappear from the administration [5] [h] | pharmacological effects of chronic treatment (Zucker rats) | stability in human plasma [6]
1 | NCCC(=O)N[C@@H](Cc1cnc[nH]1)C(=O)O [L-carnosine, β-alanyl-L-histidine] | rapidly hydrolysed | 96.4 | 44 | undetectable | ≤ 2 | 60 |  |  |  |  |  |  |  |  |  |  |  |  | 
2 | NCCC(=O)N[C@H](Cc1cnc[nH]1)C(=O)O [D-carnosine] |  | 98.3 | 49.2 |  |  |  | able to cross the blood-brain barrier | far more active towards HNE than aminoguanidine and methoxyamine | first-order profile | 1240 ± 300 | 340.2±12.3 | 6688±345 | 6 | more than a ten-fold increase | 2 | up to 8 hours | 24 | restrain: hypertriglyceridemia, hypercholesterolemia, hyperthenison, and carbonyl related disesases such as vascular dysfunction and nephropathy | remained unchanged
